Assays:
MBP-Sb9 = molecular target: T1, MBP-Sb9 (Homo sapiens, UniProt P50453); assay: Saturation-Transfer Difference (STD) NMR assay; assay type: binding
T1 construct: made in house
T1 sequence (P50453 2-376): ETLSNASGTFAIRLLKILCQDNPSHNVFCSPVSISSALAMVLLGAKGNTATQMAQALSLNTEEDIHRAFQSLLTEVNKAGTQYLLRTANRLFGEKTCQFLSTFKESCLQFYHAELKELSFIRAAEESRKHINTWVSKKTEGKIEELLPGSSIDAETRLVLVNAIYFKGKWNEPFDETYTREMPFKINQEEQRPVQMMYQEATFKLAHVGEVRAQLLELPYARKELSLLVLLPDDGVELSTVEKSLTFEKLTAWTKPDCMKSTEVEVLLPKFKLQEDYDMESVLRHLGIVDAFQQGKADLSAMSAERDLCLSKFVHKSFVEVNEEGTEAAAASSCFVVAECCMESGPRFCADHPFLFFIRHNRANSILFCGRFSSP
Source text: The Saturation-Transfer Difference (STD) NMR assay was used to evaluate the binding of the compound of Formula (III) to Sb9. […] The saturation period was 3.0 seconds with irradiation at 0 ppm (on-resonance excitation) and −20 ppm (off-resonance excitation). The number of scans was 160 for the on and off-resonance spectra, respectively. Spectra were processed using Topspin software and apodized with exponential multiplication with 1.0 Hz line-broadening.
The Saturation-Transfer Difference (STD) NMR assay was used to evaluate the binding of the compounds of Formulas (I) and (II) to Sb9. […] The saturation period was 3.0 seconds with irradiation at 0.7 ppm (on-resonance excitation) and 20 ppm (off-resonance excitation). The number of scans was 800. The spectra were processed using Topspin software with 1.0 Hz line-broadening.
The Saturation-Transfer Difference (STD) NMR assay as described herein was used to evaluate the binding of the compound of Formula (III) to Sb9.

LLC1 mouse lung tumors = assay: LLC1 lung tumor model in C57BL/6 mice; assay type: in vivo; conditions: 300 μg i.p. bid for 21 days
Source text: FIGS. 6P-6Q. […] Data are expressed as means±SEM. *P<0.05 (Student's t-test). Mean survival time (MST) is increased in mice treated with the compound of Formula (III) as compared to Control group (FIG. 6Q).
Furthermore, similar antitumor effects and increased MST using the compound of Formula (III) in two other in vivo tumor models were observed: Renca renal cell carcinoma and LLC1 lung cancer (FIGS. 6M-6Q). Thus, inhibition of Sb9 by the compound of Formula (III) has potent anti-tumor effects in a broad spectrum of tumors, including melanomas as well as breast, lung, and kidney tumors.

B16-Sb9 KO cells = assay: RT-PCR gene expression in B16-Sb9 KO cells; assay type: cell-based, mouse
Experimental: Total RNA was prepared from cells using the Quick-RNA MiniPrep kit (Zymo Research, Irvine, Calif., USA), according to the manufacturer's instructions. cDNA was prepared from total RNA using SuperScript III Reverse Transcriptase (Invitrogen). Following reverse transcription, quantitative PCR was performed using a cycling profile consisting of 95° C. for 2 min (Stage I), 30 cycles of 95° C. for 20 s, 58° C. for 30 s, and 70° C. for 30 s (Stage II), and 65° C. for 5 s (Stage III). Fold changes were determined by subtracting Cq values of the loading control from the Cq values of the gene of interest. The results were normalized to untreated controls.
To evaluate the off-target effects of the compound of Formula (III) to Sb9 proteins, the B16-Sb9 KO melanoma cells were treated with various concentrations of the compound of Formula (III). […] Furthermore, the antitumor effects of the compound of Formula (III) on the Sb9 KO mice bearing B16-Sb9 KO tumors, as compared to control group were not observed (FIG. 5N).

O=C(O)c1ccc2ncoc2c1 [Formula (III), 1,3-benzoxazole-6-carboxylic acid]
binding to MBP-Sb9 by STD NMR (MBP-Sb9; 420 μM compound, 45 μM Sb9 protein, PBS pH 7.0, 25° C.): confirmed the binding activity
pH dependence of binding to MBP-Sb9 by STD NMR (MBP-Sb9; 450 μM compound, 45 μM Sb9, various pH values): enhanced significantly at lower pH
Mean survival time (MST) vs Control (LLC1 mouse lung tumors): increased
tumor growth vs control (LLC1 mouse lung tumors; C57BL/6-WT mice): significantly slower growth
gene expression of caspase-3/8, P53, and Bcl-2 (B16-Sb9 KO cells): no significant effect

From patent publication US20230255906A1, “Targeting Serpin B9 in Cancer” (The Brigham and Women`s Hospital, Inc., priority 2020, published 2023)
